Square brackets hold non-standard residues; d marks the D form. Peptide text beside a SMILES is read from it. Dmt = Cc1cc(O)cc(C)c1C[C@H](N)C(=O)O; Orn = NCCC[C@H](N)C(=O)O
tested on: A549 lung cancer cell; format: cell-based, human; conditions: 24 h
Description: (B) Inhibition of PSD activity by the 2F3 (●) or 1C11 (◯) peptide. PSD activity was measured using the DSB-3 method. (C-E) Cell proliferation inhibition following incubation of A549 cells with the indicated mitochondria- or nuclear-targeted peptides for 24 h in a serum-free medium, and cell proliferation was assayed using the SRB method. Results are the means±SEM (n=3). (F) A549 cells were incubated for 90 min with 5 μM of the mitochondria- or nuclear targeted FITC-labelled peptides, immunostained with anti-SMAC antibodies and with DAPI and visualized by confocal microscope for subcellular localization. Arrows indicates nuclear (n=3). Scale bars represent 20
(A) A549 cells were incubated with the indicated concentration of 1C11-HTRA2-derived peptide targeted to the mitochondrion with the targeting sequence added to the N-terminus (N-Ter) or the C-terminus (C-Ter). (B) Mitochondrion targeted 1C11-HTRA2-derived peptide was modified by replacing the three amino acids in the C or the N-terminus of the peptide, or all amino acids in the peptide with the D-confirmation of the amino acid (underlined amino acids)). Following 24 h incubation in a serum-free medium, cell proliferation was assayed using the SRB method. (C) The concentration required for 50% inhibition of cell proliferation (IC50) is presented. Results are the means±SEM (n=3).
A549 (human lung adenocarcinoma epithelial cell), HEK-293T (human embryonic kidney), H1563/CRL-5875 (non-small cell lung cancer adenocarcinoma), H-358 (bronchioalveolar carcinoma), HaCaT (spontaneously transformed aneuploid immortal human skin keratinocyte), and WI-38 (fibroblast-like fetal lung cell) cell lines were purchased from the American Type Culture Collection (ATCC) (Manassas, VA), and were maintained as per ATCC instructions. Cells were maintained in ATCC recommended medium at 37° C. in an incubator with 5% CO2. Cell lines were routinely tested for Mycoplasma contamination. For SMAC overexpression, cells were seeded (200,000 cells/well) on 6-well culture plates and allowed to adhere overnight. These adhered cells were transfected with PVMV3.1-SMAC or empty vector using the JetPRIME transfection reagent (Illkirch, France), according to the manufacturers' instructions. Medium was changed 6 h post transfection, and cells were harvested 48 h post transfection.
Cells were seeded in 96-well cell culture plates (8,000/well) and allowed to grow for 48 h. After washing with PBS, cells were fixed with 10% trichloroacetic acid, and stained with SRB for 20 min. Excess SRB were removed, and cells were washed with 1% acetic acid. SRB extraction was done using 100 mM Tris-base, and absorbance at 510 nm was determined using an Infinite M1000 plate reader (Tecan, Mannedorf, Switzerland).

| IC50 | SMILES |
| --- | --- |
| 30.3 ± 5.5 µM | Cc1cc(O)cc(C)c1C[C@H](NC(=O)[C@@H](CCCNC(=N)N)NC(=O)[C@H](CC(C)C)NC(=O)[C@H](CCCNC(=N)N)NC(=O)[C@H](C)NC(=O)[C@H](Cc1c[nH]c2ccccc12)NC(=O)[C@H](CC(C)C)NC(=O)[C@H](CO)NC(=O)[C@@H]1CCCN1C(=O)[C@@H](NC(=O)CNC(=O)[C@H](Cc1ccc(O)cc1)NC(=O)[C@@H](NC(=O)[C@@H](NC(=O)[C@H](CCCNC(=N)N)NC(=O)[C@H](C)NC(=O)[C@H](CCCNC(=N)N)NC(=O)[C@@H]1CCCN1C(=O)[C@H](CC(=O)O)NC(=O)[C@H](CO)NC(=O)[C@@H](NC(=O)CNC(=O)[C@H](CO)NC(=O)[C@@H](NC(=O)[C@H](CC(C)C)NC(=O)[C@H](CC(C)C)NC(=O)[C@H](C)N)[C@@H](C)O)[C@@H](C)O)C(C)C)[C@@H](C)O)[C@@H](C)O)C(=O)N[C@@H](CCCN)C(=O)N[C@@H](Cc1ccccc1)C(N)=O [1C11-D-Arg-Dmt-Orn-Phe] (H-ALLTSGTSDPRARVTYGTPSLWARL[dR][Dmt][Orn]F-NH2; N-terminus and C-terminus assumed) |
| 30 ± 3.8 µM | CC(C)C[C@H](NC(=O)[C@H](C)N)C(=O)N[C@@H](CC(C)C)C(=O)N[C@H](C(=O)N[C@@H](CO)C(=O)NCC(=O)N[C@H](C(=O)N[C@@H](CO)C(=O)N[C@@H](CC(=O)O)C(=O)N1CCC[C@H]1C(=O)N[C@@H](CCCNC(=N)N)C(=O)N[C@@H](C)C(=O)N[C@@H](CCCNC(=N)N)C(=O)N[C@H](C(=O)N[C@H](C(=O)N[C@@H](Cc1ccc(O)cc1)C(=O)NCC(=O)N[C@H](C(=O)N1CCC[C@H]1C(=O)N[C@@H](CO)C(=O)N[C@@H](CC(C)C)C(=O)N[C@@H](Cc1c[nH]c2ccccc12)C(=O)N[C@@H](C)C(=O)N[C@@H](CCCNC(=N)N)C(=O)N[C@@H](CC(C)C)C(=O)N[C@@H](CCCNC(=N)N)C(=O)N[C@H](CCCNC(=N)N)C(=O)N[C@@H](CCCNC(=N)N)C(=O)N[C@@H](CCCCN)C(=O)O)[C@@H](C)O)[C@@H](C)O)C(C)C)[C@@H](C)O)[C@@H](C)O [1C11-R-{D-Arg}-RK] (H-ALLTSGTSDPRARVTYGTPSLWARLR[dR]RK-OH; N-terminus and C-terminus assumed) |
| > 100 µM | CC[C@H](C)[C@H](NC(=O)[C@@H](NC(=O)[C@H](CC(N)=O)NC(=O)[C@H](C)NC(=O)[C@H](CCCCN)NC(=O)[C@H](CC(C)C)NC(=O)[C@H](CC(C)C)NC(=O)[C@H](CC(N)=O)NC(=O)[C@H](CC(=O)O)NC(=O)[C@H](CC(C)C)NC(=O)[C@@H](NC(=O)[C@@H]1CCCN1C(=O)[C@H](CC(C)C)NC(=O)[C@@H](NC(=O)[C@H](CS)NC(=O)[C@@H](NC(=O)[C@H](CC(C)C)NC(=O)[C@H](CCC(N)=O)NC(=O)[C@H](CCC(N)=O)NC(=O)[C@@H](N)Cc1ccccc1)[C@@H](C)O)C(C)C)[C@@H](C)CC)C(C)C)C(=O)N[C@@H](CC(N)=O)C(=O)N[C@@H](CCCCN)C(=O)N[C@@H](CCC(N)=O)C(=O)N[C@@H](CCC(=O)O)C(=O)N[C@@H](Cc1c[nH]cn1)C(=O)N[C@H](CCCNC(=N)N)C(=O)N[C@@H](Cc1c(C)cc(O)cc1C)C(=O)N[C@@H](CCCN)C(=O)N[C@@H](Cc1ccccc1)C(N)=O [1E14-D-Arg-Dmt-Orn-Phe] (H-FQQLTCVLPILDNLLKANVINKQEH[dR][Dmt][Orn]F-NH2; N-terminus and C-terminus assumed) |
| 19.6 ± 0.4 µM | CC[C@H](C)[C@H](NC(=O)[C@@H]1CCCN1C(=O)[C@H](CO)NC(=O)[C@H](CO)NC(=O)[C@@H](NC(=O)[C@H](CO)NC(=O)[C@H](CC(C)C)NC(=O)[C@H](C)N)[C@@H](C)O)C(=O)N1CCC[C@H]1C(=O)N[C@@H](CO)C(=O)N[C@H](C(=O)N1CCC[C@H]1C(=O)N[C@@H](CCC(N)=O)C(=O)N[C@@H](CO)C(=O)N[C@@H](CCC(N)=O)C(=O)N[C@@H](C)C(=O)N[C@@H](CCC(N)=O)C(=O)N1CCC[C@H]1C(=O)N[C@@H](CCC(N)=O)C(=O)N[C@H](C(=O)NCC(=O)N[C@@H](CO)C(=O)NCC(=O)N[C@@H](C)C(=O)N[C@@H](CO)C(=O)N[C@H](CCCNC(=N)N)C(=O)N[C@@H](Cc1c(C)cc(O)cc1C)C(=O)N[C@@H](CCCN)C(=O)N[C@@H](Cc1ccccc1)C(N)=O)[C@@H](C)O)C(C)C [2F3-D-Arg-Dmt-Orn-Phe] (H-ALSTSSPIPSVPQSQAQPQTGSGAS[dR][Dmt][Orn]F-NH2; N-terminus and C-terminus assumed) |
| 29.6 ± 0.6 µM | CC[C@H](C)[C@H](NC(=O)[C@@H]1CCCN1C(=O)[C@H](CO)NC(=O)[C@H](CO)NC(=O)[C@@H](NC(=O)[C@H](CO)NC(=O)[C@H](CC(C)C)NC(=O)[C@H](C)N)[C@@H](C)O)C(=O)N1CCC[C@H]1C(=O)N[C@@H](CO)C(=O)N[C@H](C(=O)N1CCC[C@H]1C(=O)N[C@@H](CCC(N)=O)C(=O)N[C@@H](CO)C(=O)N[C@@H](CCC(N)=O)C(=O)N[C@@H](C)C(=O)N[C@@H](CCC(N)=O)C(=O)N1CCC[C@H]1C(=O)N[C@@H](CCC(N)=O)C(=O)N[C@H](C(=O)NCC(=O)N[C@@H](CO)C(=O)NCC(=O)N[C@@H](C)C(=O)N[C@@H](CO)C(=O)N[C@@H](CCCNC(=N)N)C(=O)N[C@H](CCCNC(=N)N)C(=O)N[C@@H](CCCNC(=N)N)C(=O)N[C@@H](CCCCN)C(=O)O)[C@@H](C)O)C(C)C [2F3-R-{D-Arg}-RK] (H-ALSTSSPIPSVPQSQAQPQTGSGASR[dR]RK-OH; N-terminus and C-terminus assumed) |
| 30.2 ± 3.6 µM | Cc1cc(O)cc(C)c1C[C@H](NC(=O)[C@@H](CCCNC(=N)N)NC(=O)[C@H](CCC(N)=O)NC(=O)[C@H](CCC(N)=O)NC(=O)[C@H](CO)NC(=O)[C@H](CC(C)C)NC(=O)[C@H](Cc1ccccc1)NC(=O)[C@H](CC(=O)O)NC(=O)[C@H](Cc1ccccc1)NC(=O)[C@H](C)NC(=O)[C@H](CC(C)C)NC(=O)[C@H](CC(=O)O)NC(=O)[C@H](CO)NC(=O)[C@H](CO)NC(=O)[C@H](Cc1c[nH]cn1)NC(=O)[C@H](CC(=O)O)NC(=O)[C@@H](NC(=O)CNC(=O)[C@H](CCC(N)=O)NC(=O)[C@H](Cc1ccccc1)NC(=O)[C@H](C)NC(=O)[C@H](CCCNC(=N)N)NC(=O)[C@H](CO)NC(=O)[C@H](CO)NC(=O)[C@H](CCC(N)=O)NC(=O)[C@H](CC(N)=O)NC(=O)[C@@H]1CCCN1)[C@@H](C)O)C(=O)N[C@@H](CCCN)C(=O)N[C@@H](Cc1ccccc1)C(N)=O [2I8-(D-Arg)-Dmt-Orn-Phe-NH2] (H-PNQSSRAFQGTDHSSDLAFDFLSQQ[dR][Dmt][Orn]F-NH2; N-terminus assumed) |
| 19.7 ± 4.3 µM | CC(C)C[C@H](NC(=O)[C@H](CC(=O)O)NC(=O)[C@H](CO)NC(=O)[C@H](CO)NC(=O)[C@H](Cc1c[nH]cn1)NC(=O)[C@H](CC(=O)O)NC(=O)[C@@H](NC(=O)CNC(=O)[C@H](CCC(N)=O)NC(=O)[C@H](Cc1ccccc1)NC(=O)[C@H](C)NC(=O)[C@H](CCCNC(=N)N)NC(=O)[C@H](CO)NC(=O)[C@H](CO)NC(=O)[C@H](CCC(N)=O)NC(=O)[C@H](CC(N)=O)NC(=O)[C@@H]1CCCN1)[C@@H](C)O)C(=O)N[C@@H](C)C(=O)N[C@@H](Cc1ccccc1)C(=O)N[C@@H](CC(=O)O)C(=O)N[C@@H](Cc1ccccc1)C(=O)N[C@@H](CC(C)C)C(=O)N[C@@H](CO)C(=O)N[C@@H](CCC(N)=O)C(=O)N[C@@H](CCC(N)=O)C(=O)N[C@@H](CCCNC(=N)N)C(=O)N[C@H](CCCNC(=N)N)C(=O)N[C@@H](CCCNC(=N)N)C(=O)N[C@@H](CCCCN)C(=O)O [2I8-R-{D-Arg}-RK] (H-PNQSSRAFQGTDHSSDLAFDFLSQQR[dR]RK-OH; N-terminus and C-terminus assumed) |
| 89.3 ± 5.49 µM | Cc1cc(O)cc(C)c1C[C@H](NC(=O)[C@H](N)CCCNC(=N)N)C(=O)N[C@@H](CCCN)C(=O)N[C@@H](Cc1ccccc1)C(=O)N[C@@H](C)C(=O)N[C@@H](CC(C)C)C(=O)N[C@@H](CC(C)C)C(=O)N[C@H](C(=O)N[C@@H](CO)C(=O)NCC(=O)N[C@H](C(=O)N[C@@H](CO)C(=O)N[C@@H](CC(=O)O)C(=O)N1CCC[C@H]1C(=O)N[C@@H](CCCNC(=N)N)C(=O)N[C@@H](C)C(=O)N[C@@H](CCCNC(=N)N)C(=O)N[C@H](C(=O)N[C@H](C(=O)N[C@@H](Cc1ccc(O)cc1)C(=O)NCC(=O)N[C@H](C(=O)N1CCC[C@H]1C(=O)N[C@@H](CO)C(=O)N[C@@H](CC(C)C)C(=O)N[C@@H](Cc1c[nH]c2ccccc12)C(=O)N[C@@H](C)C(=O)N[C@@H](CCCNC(=N)N)C(=O)N[C@@H](CC(C)C)C(=O)O)[C@@H](C)O)[C@@H](C)O)C(C)C)[C@@H](C)O)[C@@H](C)O [D-Arg-Dmt-Orn-Phe-1C11] (H-[dR][Dmt][Orn]FALLTSGTSDPRARVTYGTPSLWARL-OH; N-terminus and C-terminus assumed) |
